Patent US20180200257A1, “METHODS FOR THE TREATMENT OF INFLAMMATORY DISORDERS” (Galapagos NV, priority 2015, published 2018)

Tested on: subjects with moderately to severely active RA who have an inadequate response to methotrexate (MTX)
Experiment: Study 1 (add-on to MTX) - ACR responses (ACR20/50/70)
Type: in vivo, human
Excerpt: The terms “ACR20”, “ACR50” and “ACR70” as used herein are scores which indicate how much a patient's rheumatoid arthritis has improved according to criteria set out by the American College of Rheumatology (ACR). The ACR score represents a percentage. An ACR20 score means that a person's RA has improved by 20%, an ACR50 score means it has improved by 50%, and an ACR70 score means it has improved by 70%. Specifically, to qualify for an ACR20 score, a person with RA must have at least 20% fewer tender joints and at least 20% fewer swollen joints. In addition the patient must show a 20% improvement in at least three of the following five areas: the person's overall (global) assessment of his or her own RA, the physician's global assessment of the person's RA, the person's assessment of his or her own pain, the person's assessment of his or her own physical functioning, and the results of an erythrocyte sedimentation rate or C-reactive protein (CRP) blood test (both of which test for inflammation). ACR50 and ACR70 scores use the same criteria but require 50% and 70% improvement, respectively, (Felson et al., 1993). In the data presented herein the CRP blood test is used.
Double-blind, placebo-controlled add on study in subjects with moderately to severely active RA who have an inadequate response to methotrexate (MTX) (oral or parenteral).
595 subjects randomized to one of 6 dose regimens of Compound 1 (dosed as [Compound 1:HCl:3H2O]) (3 dose levels administered either once or twice daily) or placebo on top of each subject's stable dose of MTX.
Compound 1 (dosed as [Compound 1:HCl:3H2O]) is dosed for twelve weeks once daily (q.d.) (50 mg, 100 mg or 200 mg) or twice daily (b.i.d.) (25 mg, 50 mg or 100 mg); or placebo.
At Week 12, the subjects on placebo who have not achieved 20% improvement in swollen joint count (SJC66) and tender joint count (TJC68) are re-randomized automatically to receive Compound 1 (dosed as a [Compound 1:HCl:3H2O]) either at 100 mg q.d. or 50 mg b.i.d. doses in a blinded fashion; subjects on 50 mg q.d. who have not achieved 20% improvement in SJC66 and TJC68 will be assigned to 100 mg q.d. and subjects on 25 mg b.i.d. that have not achieved a 20% improvement in SJC66 and TJC68 will be assigned to 50 mg b.i.d. Subjects who switch treatment at week 12 are handled as if they discontinued at week 12 for the purpose of statistical analysis, whereas subjects in the other groups will maintain their randomized treatment until Week 24.
The American College of Rheumatology (ACR) composite score, which evaluates clinical improvement relative to an initial assessment, is a commonly accepted efficacy end point for clinical trials in patients with rheumatoid arthritis. The ACR score correspond to a percentage improvement in pre-set parameters, and therefore measures the evolution of the disease in a patient. For example, ACR20 denotes at least 20% improvement in tender and swollen joint counts and in three of the following end points: global assessment by the patient, global assessment by the doctor, C reactive protein (CRP), patient's pain Visual Analogue Scale and Health Assessment Questionnaire Score. The number of swollen joints, ESR and CRP correlate with radiographic progression of joint damage, whereas tender joint counts, as well as global assessments by doctors and patients, and patients' reports of pain, are sensitive to change in clinical outcomes. Physical function, as assessed by the Health Assessment Questionnaire Score, is a potent predictor of the risk of disability in rheumatoid arthritis (Felson and American College of Rheumatology Committee to Reevaluate Improvement Criteria, 2007; Felson et al., 1993).
In particular, the list of parameters used to assess ACR score can be found in the Table XCVI below and the results of the ACR responses at week 12 via either NRI or LOCF are shown in the tables below. The Hommel-corrected p-value for the pairwise comparisons of each group with placebo is shown. […]

[1] = 2 × 25 mg b.i.d., week 2, 12 weeks results
[2] = 2 × 25 mg b.i.d., week 2, 24 weeks results
[3] = 2 × 25 mg b.i.d., week 4, 12 weeks results
[4] = 2 × 25 mg b.i.d., week 4, 24 weeks results
[5] = 2 × 25 mg b.i.d., week 8, 12 weeks results
[6] = 2 × 25 mg b.i.d., week 8, 24 weeks results
[7] = 2 × 25 mg b.i.d., week 12, 12 weeks results
[8] = 2 × 25 mg b.i.d., week 12, 24 weeks results
[9] = 2 × 25 mg b.i.d., week 16, 24 weeks results
[10] = 2 × 25 mg b.i.d., week 20, 24 weeks results
[11] = 2 × 25 mg b.i.d., week 24, 24 weeks results
[12] = 2 × 25 mg b.i.d., at week 1, 12 weeks results
[13] = 2 × 25 mg b.i.d., at week 1, 24 weeks results
[14] = 2 × 50 mg b.i.d., week 2, 12 weeks results
[15] = 2 × 50 mg b.i.d., week 2, 24 weeks results
[16] = 2 × 50 mg b.i.d., week 4, 12 weeks results
[17] = 2 × 50 mg b.i.d., week 4, 24 weeks results
[18] = 2 × 50 mg b.i.d., week 8, 12 weeks results
[19] = 2 × 50 mg b.i.d., week 8, 24 weeks results

## O=C(Nc1nc2cccc(-c3ccc(CN4CCS(=O)(=O)CC4)cc3)n2n1)C1CC1 [Compound 1, cyclopropanecarboxylic acid {5-[4-(1,1-dioxo-thiomorpholin-4-ylmethyl)-phenyl]-[1,2,4]triazolo[1,5-a]pyridin-2-yl}-amide]
200 mg q.d., week 8, 12 weeks results
  ACR70 (NRI): 18.6%
[1]
  ACR20 (LOCF): 27.9%
  ACR20 (NRI): 29.1%
  ACR50 (LOCF): 7.0%
  ACR50 (NRI): 7.0%
  ACR70 (LOCF): 2.3%
  ACR70 (NRI): 2.3%
[2]
  ACR20 (LOCF): 29.1%
  ACR20 (NRI): 29.1%
  ACR50 (LOCF): 7.0%
  ACR50 (NRI): 7.0%
  ACR70 (LOCF): 2.3%
  ACR70 (NRI): 2.3%
[3]
  ACR20 (LOCF): 44.2%
  ACR20 (NRI): 45.3%
  ACR50 (LOCF): 16.3%
  ACR50 (NRI): 15.1%
  ACR70 (LOCF): 5.8%
  ACR70 (NRI): 5.8%
[4]
  ACR20 (LOCF): 46.5%
  ACR20 (NRI): 45.3%
  ACR50 (LOCF): 16.3%
  ACR50 (NRI): 15.1%
  ACR70 (LOCF): 5.8%
  ACR70 (NRI): 5.8%
[5]
  ACR20 (LOCF): 58.1%
  ACR20 (NRI): 58.1%
  ACR50 (LOCF): 25.6%
  ACR50 (NRI): 25.6%
  ACR70 (LOCF): 8.1%
  ACR70 (NRI): 9.3%
[6]
  ACR20 (LOCF): 59.3%
  ACR20 (NRI): 58.1%
  ACR50 (LOCF): 25.6%
  ACR50 (NRI): 25.6%
  ACR70 (LOCF): 9.3%
  ACR70 (NRI): 9.3%
[7]
  ACR20 (LOCF): 58.1%
  ACR20 (NRI): 57.0%
  ACR50 (LOCF): 29.1%
  ACR50 (NRI): 27.9%
  ACR70 (LOCF): 14.0%
  ACR70 (NRI): 14.0%
[8]
  ACR20 (LOCF): 59.3%
  ACR20 (NRI): 57.0%
  ACR50 (LOCF): 29.1%
  ACR50 (NRI): 27.9%
  ACR70 (LOCF): 14.0%
  ACR70 (NRI): 14.0%
[9]
  ACR20 (LOCF): 55.8%
  ACR20 (NRI): 52.3%
  ACR50 (LOCF): 31.4%
  ACR70 (LOCF): 10.5%
[10]
  ACR20 (LOCF): 58.1%
  ACR20 (NRI): 52.3%
  ACR50 (LOCF): 41.9%
  ACR70 (LOCF): 11.6%
[11]
  ACR20 (LOCF): 62.8%
  ACR20 (NRI): 55.8%
  ACR50 (LOCF): 38.4%
  ACR70 (LOCF): 22.1%
[12]
  ACR20 (LOCF): 17.4%
  ACR20 (NRI): 17.4%
  ACR50 (LOCF): 2.3%
  ACR50 (NRI): 3.5%
  ACR70 (LOCF): 1.2%
  ACR70 (NRI): 1.2%
[13]
  ACR20 (LOCF): 17.4%
  ACR20 (NRI): 17.4%
  ACR50 (LOCF): 3.5%
  ACR50 (NRI): 3.5%
  ACR70 (LOCF): 2.4%
  ACR70 (NRI): 1.2%
[14]
  ACR20 (LOCF): 40.0%
  ACR20 (NRI): 41.2%
  ACR50 (LOCF): 11.8%
  ACR50 (NRI): 11.8%
  ACR70 (LOCF): 5.9%
  ACR70 (NRI): 5.9%
[15]
  ACR20 (LOCF): 41.2%
  ACR20 (NRI): 41.2%
  ACR50 (LOCF): 11.8%
  ACR50 (NRI): 11.8%
  ACR70 (LOCF): 5.9%
  ACR70 (NRI): 5.9%
[16]
  ACR20 (LOCF): 45.9%
  ACR20 (NRI): 44.7%
  ACR50 (LOCF): 20.0%
  ACR50 (NRI): 17.6%
  ACR70 (LOCF): 9.4%
  ACR70 (NRI): 9.4%
[17]
  ACR20 (LOCF): 47.1%
  ACR20 (NRI): 45.3%
  ACR50 (LOCF): 20.0%
  ACR50 (NRI): 17.6%
  ACR70 (LOCF): 9.4%
  ACR70 (NRI): 9.4%
[18]
  ACR20 (LOCF): 55.3%
  ACR20 (NRI): 54.1%
  ACR50 (LOCF): 32.9%
  ACR50 (NRI): 32.9%
  ACR70 (LOCF): 14.1%
  ACR70 (NRI): 14.1%
[19]
  ACR20 (LOCF): 55.3%
  ACR20 (NRI): 54.1%
  ACR50 (LOCF): 32.9%
  ACR50 (NRI): 32.9%
  ACR70 (LOCF): 14.1%
